Laboratory results: ChEMBL document CHEMBL1154508, “Discovery of GSK345931A: An EP(1) receptor antagonist with efficacy in preclinical models of inflammatory pain” (Bioorg Med Chem Lett, 2009)

What was measured:
[1] = Drug level in blood of sub-chronic rat joint pain efficacy model satellite animal group at 20 mg/kg bid measured on day 5 after 1 hr post dose; type: ADME, organism-based; design: dose 20 mg/kg; settings: read-out: Drug uptake
[2] = Drug level in brain of sub-chronic rat joint pain efficacy model satellite animal group at 20 mg/kg bid measured on day 5 after 1 hr post dose; type: ADME, organism-based; design: dose 20 mg/kg; settings: read-out: Drug uptake
[3] = Ratio of drug level in brain to blood of sub-chronic rat joint pain efficacy model satellite animal group at 20 mg/kg bid measured on day 5; type: ADME, organism-based; design: dose 20 mg/kg
Thromboxane A2 receptor = biological target: T1, Thromboxane A2 receptor (Homo sapiens, UniProt P21731); test: Activity at TP receptor by FLIPR method
T1 sequence (P21731 whole entry): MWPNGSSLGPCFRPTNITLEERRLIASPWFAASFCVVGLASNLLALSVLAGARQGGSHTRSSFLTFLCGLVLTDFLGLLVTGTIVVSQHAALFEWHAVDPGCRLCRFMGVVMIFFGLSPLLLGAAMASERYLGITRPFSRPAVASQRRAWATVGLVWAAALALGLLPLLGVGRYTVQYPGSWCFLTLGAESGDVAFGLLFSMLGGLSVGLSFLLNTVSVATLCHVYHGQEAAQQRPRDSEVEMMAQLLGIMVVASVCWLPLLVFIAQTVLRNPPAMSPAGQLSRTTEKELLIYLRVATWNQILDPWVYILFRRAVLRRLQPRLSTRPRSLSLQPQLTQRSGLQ

[4] = biological target: T2, Prostaglandin E2 receptor EP1 subtype (Homo sapiens, UniProt P34995); test: Binding affinity to human EP1 receptor
T2 sequence (P34995 whole entry): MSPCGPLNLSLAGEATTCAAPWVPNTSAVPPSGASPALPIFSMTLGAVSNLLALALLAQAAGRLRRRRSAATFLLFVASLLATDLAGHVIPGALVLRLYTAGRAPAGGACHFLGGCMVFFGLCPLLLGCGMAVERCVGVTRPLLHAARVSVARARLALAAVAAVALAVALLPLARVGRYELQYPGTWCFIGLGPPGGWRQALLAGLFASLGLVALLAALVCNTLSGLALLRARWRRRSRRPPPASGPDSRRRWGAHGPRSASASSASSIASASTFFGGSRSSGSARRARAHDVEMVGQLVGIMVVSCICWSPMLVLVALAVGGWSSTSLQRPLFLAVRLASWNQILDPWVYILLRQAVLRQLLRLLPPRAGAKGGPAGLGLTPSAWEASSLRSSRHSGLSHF

[5] = biological target: T3, Prostaglandin E2 receptor EP1 subtype (Rattus norvegicus, UniProt P70597); test: Binding affinity to rat EP1 receptor
T3 sequence (P70597 whole entry): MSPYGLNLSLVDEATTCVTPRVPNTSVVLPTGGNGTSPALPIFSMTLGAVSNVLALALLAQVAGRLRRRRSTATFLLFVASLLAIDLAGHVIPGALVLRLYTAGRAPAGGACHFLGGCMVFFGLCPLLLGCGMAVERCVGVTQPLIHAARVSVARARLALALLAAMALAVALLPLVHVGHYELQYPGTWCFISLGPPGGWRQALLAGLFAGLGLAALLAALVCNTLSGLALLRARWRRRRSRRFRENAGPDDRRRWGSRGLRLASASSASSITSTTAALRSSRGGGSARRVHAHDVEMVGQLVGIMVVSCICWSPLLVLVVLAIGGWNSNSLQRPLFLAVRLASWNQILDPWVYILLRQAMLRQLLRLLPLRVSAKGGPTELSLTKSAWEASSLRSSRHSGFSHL

[6] = Blood clearance in rat at 1 mg/kg, iv; type: ADME, organism-based; design: dose 1 mg/kg, route intravenous
[7] = Aqueous solubility in water after 2 hrs; type: physicochemical
[8] = Solubility in simulated gastric fluid after 24 hrs; type: physicochemical
[9] = Solubility in fed state simulated intestinal fluid after 2 hrs; type: physicochemical
[10] = Solubility in fed state simulated intestinal fluid after 24 hrs; type: physicochemical
[11] = Volume of distribution at steady state in rat at 1 mg/kg, iv; type: ADME, organism-based; design: dose 1 mg/kg, route intravenous; settings: in vivo, read-out: Vdss
[12] = Oral bioavailability in rat at 3 mg/kg; type: ADME, organism-based; settings: in vivo
[13] = Half life in cynomolgus monkey at 1 mg/kg, iv; type: ADME, organism-based, Macaca fascicularis; design: dose 1 mg/kg, route intravenous; settings: in vivo
[14] = Drug level in mouse blood at 3 mg/kg, po after 0.5 hrs; type: ADME, organism-based; design: dose 3 mg/kg, route oral; settings: read-out: Drug uptake
[15] = Drug level in mouse brain at 3 mg/kg, po after 0.5 hrs; type: ADME, organism-based; design: dose 3 mg/kg, route oral; settings: read-out: Drug uptake
Rattus norvegicus = species: Rattus norvegicus; test: Antiinflammatory activity against complete Freund's adjuvant-induced hypersensitivity in rat inflammatory pain model; type: functional
[16] = Drug level in brain of complete Freund's adjuvant-induced rat inflammatory pain model at 2 mg/kg, po after 1 hr; type: ADME, organism-based; design: dose 2 mg/kg, route oral; settings: read-out: Drug uptake
[17] = Drug level in brain of complete Freund's adjuvant-induced rat inflammatory pain model at 3 mg/kg, po after 1 hr; type: ADME, organism-based; design: dose 3 mg/kg, route oral; settings: read-out: Drug uptake
[18] = Drug level in brain of complete Freund's adjuvant-induced rat inflammatory pain model at 10 mg/kg, po after 1 hr; type: ADME, organism-based; design: dose 10 mg/kg, route oral; settings: read-out: Drug uptake
[19] = Drug level in blood of sub-chronic rat joint pain efficacy model treatment group at 20 mg/kg bid measured on day 5 after 1 hr post dose; type: ADME, organism-based; design: dose 20 mg/kg; settings: read-out: Drug uptake
[20] = Drug level in brain of sub-chronic rat joint pain efficacy model treatment group at 20 mg/kg bid measured on day 5 after 1 hr post dose; type: ADME, organism-based; design: dose 20 mg/kg; settings: read-out: Drug uptake
[21] = Ratio of drug level in brain to blood of sub-chronic rat joint pain efficacy model treatment group at 20 mg/kg bid measured on day 5 after 1 hr post dose; type: ADME, organism-based; design: dose 20 mg/kg
[22] = biological target: T4, Peroxisome proliferator-activated receptor gamma (Homo sapiens, UniProt P37231); test: Binding affinity to PPARgamma
T4 sequence (P37231 whole entry): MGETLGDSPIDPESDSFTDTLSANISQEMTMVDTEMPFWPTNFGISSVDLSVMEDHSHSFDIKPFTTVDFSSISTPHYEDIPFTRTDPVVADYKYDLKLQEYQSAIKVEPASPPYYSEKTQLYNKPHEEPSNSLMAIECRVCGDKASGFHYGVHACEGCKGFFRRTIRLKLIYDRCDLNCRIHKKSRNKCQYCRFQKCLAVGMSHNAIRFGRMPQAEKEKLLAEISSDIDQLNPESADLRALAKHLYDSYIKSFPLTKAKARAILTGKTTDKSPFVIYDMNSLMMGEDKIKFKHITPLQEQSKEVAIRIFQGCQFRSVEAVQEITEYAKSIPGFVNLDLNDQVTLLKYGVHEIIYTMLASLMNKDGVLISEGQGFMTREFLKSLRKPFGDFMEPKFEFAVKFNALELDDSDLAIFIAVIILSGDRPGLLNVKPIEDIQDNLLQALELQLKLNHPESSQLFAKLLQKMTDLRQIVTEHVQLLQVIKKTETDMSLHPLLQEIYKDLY

[23] = Fraction unbound in rat brain
[24] = biological target: T2, Prostaglandin E2 receptor EP1 subtype; test: Antagonist activity at EP1 receptor by FLIPR calcium mobilization assay

CC(C)COc1ccc(Cl)cc1-c1ccccc1-c1cccc(C(=O)[O-])n1.[Na+]
concentration at 1 h [1]: 6.77 µM | concentration at 1 h [2]: 3.63 µM | Kp at 5 day [3]: 0.5 | IC50 (Thromboxane A2 receptor): 1580 nM | IC50 [4]: 16 nM | IC50 [5]: 12.6 nM | clearance [6]: 11 mL/min/kg | solubility at 2 h [7]: 499 µg/mL | solubility at 24 h [8]: 11 µg/mL | solubility at 2 h [9]: 1220 µg/mL | solubility at 24 h [10]: 1140 µg/mL | Vd [11]: 1.9 L/kg | bioavailability [12]: 95% | half-life [13]: 48 min | concentration at 0.5 h [14]: 1.12 µM | concentration at 0.5 h [15]: 0.277 µM | ED50 (Rattus norvegicus): 1.6 mg/kg | concentration at 1 h [16]: 0.645 µM | concentration at 1 h [17]: 1.48 µM | concentration at 1 h [18]: 7.26 µM | concentration at 1 h [19]: 5.53 µM | concentration at 1 h [20]: 3.21 µM | Kp at 1 h [21]: 0.45 | Ki [22]: 12600 nM | Fu [23]: 0.53% | Ki [24]: 2.51 nM
